Data set [1] deals with MDA-MB-231. Briefly: Induction of apoptosis in human MDA-MB-231 cells assessed as necrosis incubated for 48 hrs by annexin V and 7-AAD staining based flow cytometry analysis (reference value: 0.09%). Format: functional. (A flow cytometer gives signals particle by particle.)
The subject of data set [2] is MDA-MB-231. Put plainly: Induction of apoptosis in human MDA-MB-231 cells assessed as early apoptotic cells incubated for 48 hrs by annexin V and 7-AAD staining based flow cytometry analysis (reference value: 0.18%). In kind it is functional.
The nature of data set [3]: Genotoxicity in human MCF7 cells assessed as appearance of damaged DNA structures measured after 48 hrs by ethidium bromide staining based fluorescent microscopic analysis. Format: toxicity, cell-based. Conditions: mcf7, 48 h; call rule not given here.
Data set [4] is described as follows: Antiproliferative activity against human PNT1A cells assessed as inhibition of cell growth measured after 48 hrs by Alamar blue dye based assay. Format: toxicity. (The colour change of resazurin is a common sign of viable cells or microbes.)
Data set [5] deals with MCF7. Put plainly: Induction of apoptosis in human MCF7 cells assessed as early apoptotic cells incubated for 48 hrs by annexin V and 7-AAD staining based flow cytometry analysis (reference value: 0.14%). In kind it is functional.
The subject of data set [6] is PNT1A. Briefly: Induction of apoptosis in human PNT1A cells assessed as necrosis incubated for 48 hrs by annexin V and 7-AAD staining based flow cytometry analysis (reference value: 0.22%). Format: functional.
Data set [7] in a line: Genotoxicity in human MCF7 cells assessed as abnormal tail nuclei measured after 48 hrs by ethidium bromide staining based fluorescent microscopic analysis. Conditions: mcf7, 48 h. Format: toxicity, cell-based.
A further data set concerns the target T1, Aromatase (Homo sapiens, UniProt P11511).
T1 sequence (P11511 whole entry): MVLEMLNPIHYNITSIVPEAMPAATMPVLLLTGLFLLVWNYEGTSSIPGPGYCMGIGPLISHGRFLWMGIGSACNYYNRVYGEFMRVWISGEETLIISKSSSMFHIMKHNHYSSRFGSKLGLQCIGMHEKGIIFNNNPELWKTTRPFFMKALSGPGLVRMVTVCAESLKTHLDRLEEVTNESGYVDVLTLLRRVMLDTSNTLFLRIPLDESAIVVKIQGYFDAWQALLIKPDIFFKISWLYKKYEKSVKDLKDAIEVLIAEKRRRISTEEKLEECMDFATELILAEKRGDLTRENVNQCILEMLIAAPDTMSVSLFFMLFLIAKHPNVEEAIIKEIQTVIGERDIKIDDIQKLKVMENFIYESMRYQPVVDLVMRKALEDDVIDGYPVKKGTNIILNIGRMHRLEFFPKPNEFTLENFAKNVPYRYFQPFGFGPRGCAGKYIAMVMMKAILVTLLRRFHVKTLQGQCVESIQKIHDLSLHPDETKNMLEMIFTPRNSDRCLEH
Briefly: Inhibition of human Aromatase by fluorimetric assay.

Data set [8] relates to MCF7. Briefly: Induction of apoptosis in human MCF7 cells assessed as live cells incubated for 48 hrs by annexin V and 7-AAD staining based flow cytometry analysis (reference value: 99.14%). In kind it is functional.
A short description of data set [9]: Drug localization in mitochondria of human MDA-MB-231 cells at 2 uM incubated for 45 mins by MitoTracker dye based confocal laser scanning microscopic analysis. In kind it is ADME. Conditions: mda-mb-231, 0.75 h.
The subject of data set [10] is MCF7. Put plainly: Induction of apoptosis in human MCF7 cells assessed as necrosis incubated for 48 hrs by annexin V and 7-AAD staining based flow cytometry analysis (reference value: 0.03%). In kind it is functional.
Data set [11] concerns MCF7. Briefly: Antiproliferative activity against human MCF7 cells assessed as inhibition of cell growth measured after 48 hrs by Alamar blue dye based assay. In kind it is functional. Conditions: MCF7, 48 h.
For data set [12], the system named is MCF7. Briefly: Induction of apoptosis in human MCF7 cells assessed as late apoptotic cells incubated for 48 hrs by annexin V and 7-AAD staining based flow cytometry analysis (reference value: 0.68%). Format: functional.
A short description of data set [13]: Genotoxicity in human MDA-MB-231 cells assessed as appearance of damaged DNA structures measured after 48 hrs by ethidium bromide staining based fluorescent microscopic analysis. In kind it is toxicity, cell-based. Conditions: mda-mb-231, 48 h.
Data set [14] in a line: Genotoxicity in human MDA-MB-231 cells assessed as abnormal tail nuclei measured after 48 hrs by ethidium bromide staining based fluorescent microscopic analysis. Format: toxicity, cell-based. Conditions: mda-mb-231, 48 h.
The test system of data set [15] is MDA-MB-231. Put plainly: Antiproliferative activity against human MDA-MB-231 cells assessed as inhibition of cell growth measured after 48 hrs by Alamar blue dye based assay. Conditions: MDA-MB-231, 48 h. Format: functional.
Data set [16] concerns PNT1A. Put plainly: Induction of apoptosis in human PNT1A cells assessed as early apoptotic cells incubated for 48 hrs by annexin V and 7-AAD staining based flow cytometry analysis (reference value: 0.04%). In kind it is functional.
For data set [17], the system named is PNT1A. Briefly: Induction of apoptosis in human PNT1A cells assessed as late apoptotic cells incubated for 48 hrs by annexin V and 7-AAD staining based flow cytometry analysis (reference value: 0.04%). Format: functional.
Data set [18] has as its system MDA-MB-231. Briefly: Induction of apoptosis in human MDA-MB-231 cells assessed as late apoptotic cells incubated for 48 hrs by annexin V and 7-AAD staining based flow cytometry analysis (reference value: 0.12%). Format: functional.
Data set [19] deals with MDA-MB-231. Put plainly: Induction of apoptosis in human MDA-MB-231 cells assessed as live cells incubated for 48 hrs by annexin V and 7-AAD staining based flow cytometry analysis (reference value: 99.61%). Format: functional.
The subject of data set [20] is PNT1A. Briefly: Induction of apoptosis in human PNT1A cells assessed as live cells incubated for 48 hrs by annexin V and 7-AAD staining based flow cytometry analysis (reference value: 99.69%). In kind it is functional.

Usually IC50 stands for the point on the concentration scale where inhibition reaches its midpoint. Regarding `C[n+]1ccc(/C=C/c2cc3c(O)c(c2)Cc2cc(C(C)(C)C)cc(c2OCCCn2cc(CN4C(=O)C(=O)c5cc(Cl)ccc54)nn2)Cc2cc(/C=C/c4cc[n+](C)cc4)cc(c2O)Cc2cc(C(C)(C)C)cc(c2OCCCn2cc(CN4C(=O)C(=O)c5cc(Cl)ccc54)nn2)C3)cc1.[I-].[I-]`, the Activity is reported as 13.63% in the data set on MDA-MB-231 [1]; 0.23% with MDA-MB-231 [2]; “Toxic” in [3]; 4.56% in the data set on MCF7 [5]; 0.11% with PNT1A [6]; “Toxic” in data set [7]. The Activity in the data set on MCF7 [8] is 53.45%; in the data set with MCF7 [10], 5.75%; in the data set with MCF7 [12] it was 36.24%; in data set [13], “Toxic”; in data set [14], “Toxic”; with PNT1A [16], 1.74%. The Activity in the data set on PNT1A [17] is recorded as 0.25%; with MDA-MB-231 [18] it was 2.74%; in the data set with MDA-MB-231 [19], 83.4%. The IC50 at 48 h in [4] was determined as 32.9 µM. Moreover, the IC50 against Aromatase worked out at 0.104 µM; in the data set on MCF7 [11], 8.83 µM; with MDA-MB-231 [15] it was 3.32 µM. Also, in [9], the Drug uptake result is on record as “Active”. The Live cells in the data set on PNT1A [20] was found to be 97.91%.
